Results on six compounds are retold here after patent US11299467B2 (Antabio SAS, priority 2017, dated 2022).

SMILES strings stand for the structures. Like-named read-outs stand apart in the source and are kept apart here.

The nature of series [1]: Plasma protein binding, rapid equilibrium dialysis, human plasma. The series is classed as in vitro ADME. The following applies: 100% plasma, 5 h equilibrium dialysis. Here is the method:
[table] Test compound was spiked in plasma to a final concentration of 10 μM. An aliquot of 300 μL of plasma was placed in red chamber of the insert and 500 μL of PBS was placed into white chamber of the insert. The plate was incubated at 37° C. in thermomixer at 400 rpm for 5 hours. After incubation, the samples were matrix equilibrated with opposite matrix (10 μL of plasma/100 μL of buffer sample was matched with 100 μL of blank buffer/10 μL of plasma). Matrix matched samples were precipitated with 200 μL of acetonitrile containing internal standard. Samples were vortexed at 1000 rpm for 5 min and centrifuged at 4000 rpm for 10 min. Supernatant was separated, diluted 2 fold with water and analyzed on LC-MS/MS. Blank control samples were processed immediately after the preparation of plasma working stock solutions. These samples served as a measure for calculating the % recovery of test compounds. The percent plasma bound fraction was calculated by the following equations: % Unbound=100*FC/TC % Recovery=100*(FC+TC)/T0 where • TC=Total compound concentration as determined by the calculated concentration on the plasma side of the membrane • FC=Free compound concentration as determined by the calculated concentration on the buffer side of the membrane • T0=Total compound concentration as determined before dialysis For each set of duplicates/compound, the percentage bound, percentage unbound and percentage recovery was determined.
A general note: In equilibrium dialysis free small molecules cross a membrane that holds back macromolecules.

Series [2] is described as follows: PK study, i.v. dosing in mice. It is filed as in vivo, male Swiss albino mice. The following applies: i.v. 1 mg/kg; for AUC / C0 / clearance: mouse, plasma, iv, male Swiss albino mice; for AUC: read-out: AUC (area under the curve); for C0: read-out: C0 (plasma concentration); for clearance: read-out: Cl (clearance). How it is done: Compound A and Example 7 were dosed i.v. at 1 mg/kg to male Swiss albino mice.

Series [3] is described as follows: Plasma stability of test compounds in human plasma. It is filed as in vitro ADME. As to conditions: 1 μM, 37° C. How it is done:
[table] Test compound and QC compound were incubated at a final concentration of 1 μM in plasma at 37° C. in shaker water bath with gentle shaking. At predetermined time points, reaction was terminated with 200 μL of acetonitrile containing internal standard and centrifuged at 4000×RCF, 4° C. for 20 minutes. Supernatant was separated and analyzed by LC-MS/MS. The following equation was used to determine the percentage remaining of test/QC compound following the procedure above: […]

The target of series [4] is IMP-1 (Serratia marcescens, UniProt P52699). In words: In vitro enzyme inhibition assay, purified IMP-1 (imipenem hydrolysis, UV 299 nm). It is filed as biochemical. Here is the method:
(§1) Enzyme inhibition assays were performed using purified MBL enzymes (NDM-1; VIM-1; VIM-2; IMP-1) in 10 mM HEPES buffer pH 7.5 in 96-well microtiter plates. Imipenem (300 μM) was used as substrate and its hydrolysis was followed at UV 299 nm during 10 mn every 30 seconds using a Perkin Elmer Envision UV fluorescence plate reader.
(§2) Mean Ki values from multiple experiments are presented below.
(§3) Studies were undertaken to compare the compounds of the invention with structurally similar compounds (“Comp. x”). Experiments were conducted as described above.

The target in series [5] is VIM-1 (Pseudomonas aeruginosa, UniProt A0A0F7KYQ8). Description: In vitro enzyme inhibition assay, purified VIM-1 (imipenem hydrolysis, UV 299 nm). The series is classed as biochemical. How it is done:
as §1, §2, §3

Series [6] has as its target VIM-2 (Escherichia coli, UniProt Q5U7L7). In words: In vitro enzyme inhibition assay, purified VIM-2 (imipenem hydrolysis, UV 299 nm). It is filed as biochemical. How it is done:
as §1, §2, §3

Series [7] addresses NDM-1 (Klebsiella pneumoniae, UniProt C7C422). In words: In vitro enzyme inhibition assay, purified NDM-1 (imipenem hydrolysis, UV 299 nm). It is filed as biochemical. Here is the method:
as §1, §2, §3

The test system of series [8] is NTBC104-1 (K. pneumoniae strain expressing NDM-1 and SHV-11). Description: Meropenem MIC, broth micro-dilution, NTBC104-1. It is filed as cell-based. As to conditions: 8 ug/mL of the compound. Here is the method:
The experiments were carried out using the ‘broth micro-dilution method’ according to the protocols M07-A8 established by the Clinical Laboratory Standards Institute (CLSI). Serial dilutions of the β-lactam antibiotic (Meropenem) were prepared in 96-well plates in cation-adjusted Mueller-Hinton broth (CAMHB); the concentration range was defined from 0.03 mg/L to 512 mg/L. The compounds were added at a constant concentration of 8 μg/mL. A bacterial inoculum of each strain (clinical isolates) was adjusted to a 0.5 McFarland turbidity standard in physiologic serum (0.9% NaCl), then diluted 1:100 in CAMHB and added to each well to give a final bacterial cell number of 5×10^5 CFU/well. After incubation for 18-20 hours in a heating chamber at 37° C., the growth inhibition was evaluated by the absence of any bacterial development.
Compounds of the invention were tested at a constant concentration of 8 μg/mL. The clinical strains used in these potentiation experiments were NTBC020 (E. coli strain expressing NDM-1, TEM-1 and CTX-M-15); NTBC035-2 (K. pneumoniae strain expressing NDM-1, CMY-4 and SHV-11); NTBC104-1 (K. pneumoniae strain expressing NDM-1 and SHV-11); NTBC123 (K. pneumoniae strain expressing NDM-1); NTBC018 (C. freundii strain expressing VIM-2); NTBC024 (K. pneumoniae strain expressing VIM-19, TEM-1 and CTX-M-3); NTBC042 (E. coli strain expressing VIM-1, TEM-1, CTX-M-15, SHV-12); NTBC055 (E. Coli strain expressing VIM-1); NTBC062 (K. pneumoniae strain expressing IMP-1 and TEM-1) and NTBC039 (K. oxytoca strain expressing IMP-28).
(§4) Mice were infected in the thigh with K. pneumoniae NTBC104. […] The MIC of meropenem in the presence of 8 ug/mL of the compound of Example 2 is 4 ug/mL.
Experiments were carried out using the ‘broth micro-dilution method’ according to the protocols M07-A8 established by the Clinical Laboratory Standards Institute (CLSI). […] After incubation for 18-20 hours in a heating chamber at 37° C., the growth inhibition was evaluated by the absence of any bacterial development. […]
For orientation: Dilution methods test growth across graded concentrations, often in twofold steps.

For series [9], the system named is K. pneumoniae NTBC104. In words: In vivo efficacy, mouse thigh infection with K. pneumoniae NTBC104. As to conditions: meropenem 30 mg/kg plus compound 30 mg/kg, 9 hours post infection. How it is done:
as §4
At the end of the experiment (9 hours post infection) the animals were sacrificed and the numbers of colony forming units (CFUs) were measured in order to quantify bacterial load (extent of the infection).

Setting [10] is: comparative study bands, read-out: Ki IMP-1 (comparative study).
[11] abbreviates: comparative study bands, read-out: Ki VIM-1 (comparative study).
The mark [12] stands for this setting: comparative study bands, read-out: Ki VIM-2 (comparative study).
[13] abbreviates: comparative study bands, read-out: Ki NDM-1 (comparative study).
The mark [14] stands for this setting: mean Ki from multiple experiments, imipenem 300 μM, Cheng-Prusoff from IC50, read-out: Ki IMP-1.
The mark [15] stands for this setting: mean Ki from multiple experiments, imipenem 300 μM, Cheng-Prusoff from IC50, read-out: Ki VIM-1.
Where [16] appears, read: mean Ki from multiple experiments, imipenem 300 μM, Cheng-Prusoff from IC50, read-out: Ki VIM-2.
The mark [17] stands for this setting: mean Ki from multiple experiments, imipenem 300 μM, Cheng-Prusoff from IC50, read-out: Ki NDM-1.

Sequence of IMP-1 (P52699 19-246, looked up, species assumed): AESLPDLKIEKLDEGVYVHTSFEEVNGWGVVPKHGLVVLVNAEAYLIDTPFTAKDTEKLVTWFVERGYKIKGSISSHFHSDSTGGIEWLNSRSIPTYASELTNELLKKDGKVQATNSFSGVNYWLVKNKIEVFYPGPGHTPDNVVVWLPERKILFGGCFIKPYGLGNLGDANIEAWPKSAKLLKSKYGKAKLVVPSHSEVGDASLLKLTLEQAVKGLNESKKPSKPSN
Sequence of NDM-1 (C7C422 29-270, looked up): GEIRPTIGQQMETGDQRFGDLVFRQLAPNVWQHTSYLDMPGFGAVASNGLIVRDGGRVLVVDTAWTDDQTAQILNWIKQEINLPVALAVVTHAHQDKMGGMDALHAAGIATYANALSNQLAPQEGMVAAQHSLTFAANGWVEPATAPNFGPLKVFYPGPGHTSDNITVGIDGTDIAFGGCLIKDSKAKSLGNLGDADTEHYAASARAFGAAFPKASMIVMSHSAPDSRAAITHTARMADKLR

With `NCC(=O)Nc1ccc(S(=O)(=O)Nc2scnc2C(=O)O)cc1F` [Comp. A, reference compound], the fraction unbound – broadly, the share of the substance not bound to proteins or other matrix – at 5 h, 10 μM in series [1] is 0.097. In [2], the AUC (in general, concentration integrated over time) stood at 9 ng·h/mL; the C0 came out at 17 ng/mL; the clearance – broadly, the volume of plasma or blood freed of the substance per unit of time – turned out to be 819 mL/min/kg. Also, the “Stability in human plasma, % remaining” value in series [3] (after 2 hours) came to 29% remaining after 2 hours.
For `NCC(=O)Nc1c(F)cc(S(=O)(=O)Nc2scnc2C(=O)O)cc1F` [Comp. B, reference compound], the Ki (as a rule, the equilibrium dissociation constant of an inhibitor or competing ligand from its target) in series [4] (setting [10]) is 600 to 5000 nM; in [5] (setting [11]), 300 to 500 nM; in [6] (setting [12]), 100 to 150 nM; in [7] (setting [13]) it was under 30 nM. Moreover, the “Stability in human plasma, % remaining” value in [3] (after 5 hours) is 0% remaining after 5 hours.
`N=C(N)NCC(=O)Nc1c(F)cc(S(=O)(=O)Nc2scnc2C(=O)O)cc1F` [Example 2, 5-[[3,5-difluoro-4-[(2-guanidinoacetyl)amino]phenyl]sulfonylamino]thiazole-4-carboxylic acid] had a fraction unbound at 5 h, 10 μM in [1] of 0.19. Besides, the Ki was in the range of 600 to 5000 nM in series [4] (setting [10]); 1000 to 10000 nM in [4] (setting [14]); 300 to 500 nM in [5] (setting [11]); 200 to 500 nM in series [5] (setting [15]); 50 to 100 nM in series [6] (setting [12]); 50 to 150 nM in series [6] (setting [16]). The Ki in [7] (setting [13]) was under 30 nM; in series [7] (setting [17]) it was under 50 nM. In series [8], the “MIC of meropenem in the presence of the compound, K. pneumoniae NTBC104” value came out at 4 µg/mL. Moreover, in [3] (after 2 hours), the “Stability in human plasma, % remaining” value came to 73% remaining after 2 hours. Moreover, the “Log10 reduction in CFUs compared to meropenem alone” value (from here on “Log10 reduction in CFUs”) in series [9] is recorded as 1.6 Log10.
`N=C(N)NCC(=O)Nc1ccc(S(=O)(=O)Nc2scnc2C(=O)O)cc1F` [Example 7, 5-[[3-fluoro-4-[(2-guanidinoacetyl)amino]phenyl]sulfonylamino]thiazole-4-carboxylic acid] gave a fraction unbound at 5 h, 10 μM in series [1] of 0.392. Further, in series [2], the AUC was determined as 1040 ng·h/mL, the C0 stood at 1810 ng/mL and the clearance worked out at 16 mL/min/kg. Moreover, in series [2] (same dosage, mice), the “cleared from the blood slower than Compound A” value is “about 50 fold”, the “exposure (AUC) compared to Compound A” value is over 100 fold and the “maximum concentration compared to Compound A” value is given as over 100 fold. Moreover, in series [4] (setting [14]), the Ki is 1000 to 10000 nM. For the same compound, the inhibition constant (Ki) in series [5] (setting [15]) fell in the range of 200 to 500 nM. Further, the Ki in series [6] (setting [16]) was in the range of 50 to 150 nM. In addition, the Ki in [7] (setting [17]) was in the range of 50 to 200 nM. Besides, the “Stability in human plasma, % remaining” value in [3] (after 5 hours) is 100% remaining after 5 hours. For the same compound, in [9], the “Log10 reduction in CFUs” value was 1.7 Log10.
Take `COc1cc(S(=O)(=O)Nc2scnc2C(=O)O)ccc1NC(=O)CNC(=N)N` [Example 16, 5-[[4-[(2-guanidinoacetyl)amino]-3-methoxy-phenyl]sulfonylamino]thiazole-4-carboxylic acid]: the inhibitory constant (Ki) in series [4] (setting [10]) was 150 to 600 nM; in [4] (setting [14]) it was 500 to 1000 nM; in series [5] (setting [11]), under 150 nM; in series [5] (setting [15]), under 200 nM; in series [6] (setting [12]), under 20 nM; in [6] (setting [16]), under 20 nM. Further, the Ki in series [7] (setting [13]) lay in the range of 30 to 100 nM; in series [7] (setting [17]), 50 to 200 nM. For the same compound, in series [3] (after 2 hours), the “Stability in human plasma, % remaining” value was 89% remaining after 2 hours.
As to `N=C(N)NNC(=O)Nc1c(F)cc(S(=O)(=O)Nc2scnc2C(=O)O)cc1F` [Example 26, 5-[[3,5-difluoro-4-(guanidinocarbamoylamino)phenyl]sulfonylamino]thiazole-4-carboxylic acid], the Ki was 1000 to 10000 nM in [4] (setting [14]), 200 to 500 nM in series [5] (setting [15]), 20 to 50 nM in [6] (setting [16]) and under 50 nM in [7] (setting [17]). In series [9], the “Log10 reduction in CFUs” value amounted to 1.8 Log10.
